pIC50: −log10 of the molar value.
What was measured:
canine glioma tumors = assay: canine glioma tumor growth in nude rats, various biomodulators; format: in vivo; conditions: in words
Method: C57 BL/6 mice were injected I.M. with B-16 melanoma cells, maintained in culture in the right flank or shoulder. Tumor growth was monitored on a daily basis by physical measurement and by MRI/MRS on a weekly basis. Treatment routes were via intraperitoneal injection using various CAD between 1 μg and 0.001 μg per animal on a M, W, F injection schedule. The animals were terminated by CO2 when the tumors had become 1.0 cm in diameter. Lung metastases were counted.
Various biomodulators were tested in vivo for their effects on canine glioma tumors established and monitored as above for mice, but in nude rats. […] FIGS. 29-30 show the progression of the tumors over time with treatment with, respectively, PWM, Sw, CAD, HHD-2, HHD-3, HHD-4, and HHD-7.

P-815 mastocytoma cells = assay: P-815 cytotoxic T lympholysis / cell mediated lympholysis (CML), spleen cells treated in culture; format: cell-based, mouse; conditions: hydrocortisone 2 mg given day -2; hydroxyurea 10^-5M; in words
Method: In this case the P-815 is injected into the H-2 incompatible host and in the Brunner and Cerotini model an antigen specific lympholysis event occurs with an optimum on day 11 at an effector/target ratio of 100:1 with 30% lysis If the spleens of the injected animals are removed on day three there is no observable cytotoxicity; however, if the spleen cells are treated with biomodulator (in this case PWM at 100 ng) there is an enormous increase in the cytotoxicity event. […] The slope represents a measure of the efficiency of kill and in the biomodulator treated cells is approximately 1.6 versus 0.24 for the control antigen driven response on day 11. This represents a seven fold increase in simple cytotoxicity efficiency. Again this is concentration dependent and the kinetics of the response are such that if the cells are left in culture for times which approximate the in vivo 11 day optimum then the lysis values approach the untreated controls. […]
P 815 mastocytoma cells are grown in culture or as an ascites (DBA H-2/d) and injected into C57BL/6J mice (H-2/b). […] The specificity of the response is assessed by testing the cytotoxicity against EL-4 cells ([…]) which are NK insensitive and histoincompatible with the original target. […]
Seven effector/target ratios are tested and the percent lysis calculated. […]

[1] = system: human peripheral blood leukocytes (HPBLs); assay: HPBL plaque forming cell (PFC) assay / IgG production in vitro (differentiation); format: cell-based; conditions: HPBL; for Stimulation of IgG Production, Percent: at the stimulating concentration
Excerpt: (§1) C. […] This model is used to correlate the effects of biomodulators on the expression of immune response in vitro. The plaque assay disclosed in this reference is used for the determination of the effect of biomodulators on the specificity, class and subclass of individual clones.
(§2) A. Purification of PWM and separation of the differentiative and proliferative functions Pokeweed Mitogen (PWM) and three of its isomitogens, Pa-1 and Pa-5, which are primarily differentiative in nature, and Pa-2 which is primarily proliferative, were prepared according to the method of Waxdal, supra, except that the iso-mitogens were finally purified by isoelectric focusing.
Human peripheral blood leukocytes were cultured in a standard tissue culture medium. Aliquots of these cultured cells (1,000,000 cells/ml medium) were cultured for 6 hours, and the specified amount of Formula II compound was added; the cells were then cultured for an additional 90 hours. Sheep red blood cells (SRBC) conditioned with class-specific (IpG) goat anti-human antiserum (1:400) for 2 hours; then guinea pig complement (2%) for 2 hours were conjugated to Protein A as described in detail in Radioimmunoimaging and Radioimmunotherapy, Eds.

[2] = system: human peripheral blood leukocytes (HPBLs); assay: HPBL 3H-thymidine incorporation (proliferation); format: cell-based; parameters: reference not given here
Excerpt: as §1, §2

HMGCoA reductase = biological target: T1, HMGCoA reductase (Rattus norvegicus, UniProt P51639); assay: inhibition of rat liver HMGCoA reductase activity; format: biochemical; parameters: from tissue; host or cells: rat liver; conditions: rat liver
T1 sequence (P51639 1-887): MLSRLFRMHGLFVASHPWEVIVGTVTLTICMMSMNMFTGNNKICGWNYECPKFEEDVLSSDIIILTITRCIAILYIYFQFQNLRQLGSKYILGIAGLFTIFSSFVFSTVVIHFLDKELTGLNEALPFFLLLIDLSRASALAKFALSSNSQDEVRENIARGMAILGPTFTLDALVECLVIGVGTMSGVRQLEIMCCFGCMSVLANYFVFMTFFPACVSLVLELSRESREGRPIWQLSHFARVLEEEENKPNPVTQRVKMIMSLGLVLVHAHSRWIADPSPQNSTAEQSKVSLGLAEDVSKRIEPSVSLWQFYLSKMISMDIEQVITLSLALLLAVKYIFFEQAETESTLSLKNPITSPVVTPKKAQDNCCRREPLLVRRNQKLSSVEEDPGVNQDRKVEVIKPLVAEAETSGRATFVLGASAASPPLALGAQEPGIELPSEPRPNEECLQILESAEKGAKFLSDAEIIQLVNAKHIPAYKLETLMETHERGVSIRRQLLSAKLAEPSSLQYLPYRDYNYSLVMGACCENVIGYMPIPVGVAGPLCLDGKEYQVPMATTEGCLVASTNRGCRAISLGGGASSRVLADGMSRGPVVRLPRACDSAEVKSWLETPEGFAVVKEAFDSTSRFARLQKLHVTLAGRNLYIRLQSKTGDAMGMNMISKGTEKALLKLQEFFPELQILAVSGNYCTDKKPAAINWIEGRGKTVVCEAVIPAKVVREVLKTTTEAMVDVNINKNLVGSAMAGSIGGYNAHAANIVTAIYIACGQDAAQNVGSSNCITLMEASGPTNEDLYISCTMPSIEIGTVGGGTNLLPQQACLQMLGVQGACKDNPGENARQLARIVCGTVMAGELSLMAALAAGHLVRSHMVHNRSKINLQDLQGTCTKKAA
Excerpt: reductase activity; data obtained according to Example IA.

canine glioma = assay: in vivo inhibition of canine glioma in dog brain (NMR)
Method: Canine glioma was implanted surgically into the brains of four outbred dogs (2×10^6 cells). This procedure normally causes death by tumor growth in 14-28 days.
Simultaneous with implantation, the dogs were each placed on a regimen of compounds according to the invention, Compounds IIa', IIe' and TF004 in various dosages were administered on alternate days (M, W, F) by I.P. injection in phosphate buffered saline.
Tumor progress was assessed at weekly intervals by NMR, employing GdDTPA as imaging agent. This method illuminates vascularization at the surface of the tumor, and provides images which correlate well with neuropathological observations.

[3] = 1 ng/kg I.P., treatment begun on day of implantation

| Structure (SMILES) | Stimulation of IgG Production, Concentration [1] | Stimulation of IgG Production, Percent [1] | Proliferation ((3H) thymidine incorporation into DNA) [2] | pIC50 (HMGCoA reductase) | further results |
| --- | --- | --- | --- | --- | --- |
| CC(C)OC(=O)C[C@H](O)C[C@H](O)/C=C/c1c(C(C)C)nc(-c2ccccc2)n1-c1ccc(F)cc1 [HHD-3] |  |  |  |  | canine glioma tumor regression in nude rats (canine glioma tumors): showed no regression effect, just delay of the control growth pattern |
| CC(C)OC(=O)C[C@H](O)C[C@@H](O)/C=C/c1c(C(C)C)nc(-c2ccccc2)n1-c1ccc(F)cc1 [HHD-7] |  |  |  |  | canine glioma tumor regression in nude rats (canine glioma tumors): showed the best regression |
| C[C@]12CCC(=O)C=C1CC[C@@H]1[C@@H]2[C@@H](O)C[C@@]2(C)[C@H]1CC[C@]2(O)C(=O)CO [Hydrocortisone] |  |  |  |  | influence on the biomodulator effect on CML (P-815 mastocytoma cells): reduced the biomodulator effect |
| NC(=O)NO [Hydroxyurea] |  |  |  |  | influence on the biomodulator effect on CML (P-815 mastocytoma cells): does not inhibit the biomodulator effect on CML |
| CC(C)OC(=O)C[C@@H](O)C[C@@H](O)/C=C/c1c(C(C)C)nc(-c2ccccc2)n1-c1ccc(F)cc1 [IIa] | 200 pM | 1700% | 0.98 | 5.50 | Inhibitory Concentration (inhibiting nonspecific IgG production below normal production) [1]: none found |
| CC(C)OC(=O)C[C@@H](O)C[C@H](O)/C=C/c1c(C(C)C)nc(-c2ccccc2)n1-c1ccc(F)cc1 [IIb] | 200 pM | 1700% | 1.0 | 5.87 | Inhibitory Concentration (inhibiting nonspecific IgG production below normal production) [1]: none found |
| CC(C)OC(=O)C[C@H](O)C[C@H](O)/C=C/c1c(C(C)C)nc(-c2ccccc2)n1-c1ccc(F)cc1 [IId, reference compound] | 100000 pM | 320% | 0.66 | 8.70 |  |
| CC(C)c1nc(-c2ccccc2)n(-c2ccc(F)cc2)c1/C=C/[C@H](O)C[C@H](O)CC(=O)O [TF-002] |  |  |  |  | day by which tumor regressed (canine glioma; pre-treated, 10 ng/kg I.P. M, W, F): ≤ 19 days; later tumor status (canine glioma; pre-treated, 10 ng/kg, in words): free of tumor |
| CC(C)c1c(/C=C/C(O)CC(O)CC(=O)O)n(-c2ccc(F)cc2)c2ccccc12 (stereo not drawn) [TF-004] |  |  |  |  | day of complete regression (canine glioma; [3]): ≤ 21 days; day of substantial regression (canine glioma; [3]): ≤ 15 days; day of complete regression (canine glioma; treatment begun on Day 11): ≤ 30 days; day of substantial regression (canine glioma; treatment begun on Day 11): ≤ 21 days |

Source: patent publication US5919464A, “Treatment of aberrant cellular states with biomodulators” (University of New Mexico, priority 1993, dated 1999)
